Experimental data from patent US20110144160A1, “Antagonists of Prostaglandin D2 Receptors” (Amira Pharmaceuticals, Inc., priority 2008, published 2011).

Key:
[1] = target: T1, human DP2 receptor (Homo sapiens, UniProt Q9Y5Y4); assay: DP2/CRTH2 binding assay ([3H]PGD2 radioligand); conditions: membranes of HEK293 cells expressing recombinant human DP2, 1 nM [3H]PGD2; read-out: hDP2
T1 construct: expressed in transfected cells
T1 sequence (Q9Y5Y4 1-395): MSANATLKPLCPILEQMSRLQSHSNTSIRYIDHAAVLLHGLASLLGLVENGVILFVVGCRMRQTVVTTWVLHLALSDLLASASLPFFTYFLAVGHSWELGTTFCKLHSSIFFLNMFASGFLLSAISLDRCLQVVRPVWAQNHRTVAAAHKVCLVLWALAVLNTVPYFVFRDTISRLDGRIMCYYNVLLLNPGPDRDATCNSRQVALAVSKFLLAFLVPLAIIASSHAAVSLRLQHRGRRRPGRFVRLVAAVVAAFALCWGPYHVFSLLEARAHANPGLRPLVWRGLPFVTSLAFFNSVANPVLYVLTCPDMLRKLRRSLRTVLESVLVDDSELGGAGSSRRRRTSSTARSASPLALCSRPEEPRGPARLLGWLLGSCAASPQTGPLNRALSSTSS
How it was run: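 HEK293 membranes with stable recombinant human DP2, incubated with 1 nM [3H]PGD2 and compound 60 min at room temperature in pH 7.4 HEPES/MnCl2/EDTA buffer, with or without 0.2% human serum albumin.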

[2] = target: T2, human DP1 receptor (Homo sapiens, UniProt Q13258); assay: DP1 binding assay ([3H]BWA868C radioligand); conditions: human platelet membranes, 2 nM [3H]BWA868C; read-out: hDP1
T2 construct: tissue Biological Specialty Corporation; host or cells: human platelets, membrane preparation
T2 sequence (Q13258 1-359): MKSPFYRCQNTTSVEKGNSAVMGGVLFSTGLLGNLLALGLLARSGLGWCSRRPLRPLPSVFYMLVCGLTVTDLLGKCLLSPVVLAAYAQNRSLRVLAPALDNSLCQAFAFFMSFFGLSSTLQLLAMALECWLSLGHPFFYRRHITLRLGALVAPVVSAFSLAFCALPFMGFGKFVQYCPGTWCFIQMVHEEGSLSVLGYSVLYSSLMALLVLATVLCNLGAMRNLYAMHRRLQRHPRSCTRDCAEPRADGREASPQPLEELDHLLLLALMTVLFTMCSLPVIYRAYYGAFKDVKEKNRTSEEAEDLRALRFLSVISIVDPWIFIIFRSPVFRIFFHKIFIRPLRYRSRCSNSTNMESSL
Procedure: The ability of a compound to bind to the human DP1 receptor was evaluated via a radioligand membrane binding assay using the DP1 selective synthetic ligand [^3H]BWA868C. Packed human platelets (Biological Specialty Corporation), were resuspended in 6 volumes of Hepes/HBSS buffer (10 mM Hepes, 1 mM DTT in Hanks Balanced Salt Solution (HBSS), lysed and centrifuged at 75,000×g to pellet the membranes. Membranes were resuspended in Hepes/HBSS buffer to approximately 12 mg protein/ml. Membranes (20 μg protein/well) are incubated in 96-well plates with 2 nM [^3H]BWA868C and test compound in Assay Buffer (50 mM Hepes, 10 mM MnCl2, 1 mM EDTA, plus or minus 0.2% human serum albumin, pH 7.4) for 60 minutes at room temperature. The reactions are terminated by rapid filtration through Whatman GF/C glass fibre filter plates. The filter plates were pre-soaked in 0.33% polethylenimine for 30 minutes at room temperature then washed in Wash Buffer (50 mM Hepes, 0.5 M NaCl pH 7.4) prior to harvesting. After harvesting, the filter plates are washed 3 times with 1 ml cold Wash Buffer then dried. Scintillant is then added to the plates and the radioactivity retained on the filters is determined on a Packard TopCount (Perkin Elmer). Specific binding is determined as total radioactive binding minus non-specific binding in the presence of 10 μM BW A868C. IC50s were determined using GraphPad prism analysis of drug titration curves.

IC50 [1] [nM] | IC50 [2] [nM] | Compound
< 300 | < 300 | CC(C)(C)C(=O)Nc1ccc(Oc2cc(CC(=O)O)ccc2O)c(C[S+]([O-])C(C)(C)C)c1 (stereo not drawn) [Compound 76, {3-[4-(2,2-Dimethyl-propionylamino)-2-(2-methyl-propane-2-sulfinylmethyl)-phenoxy]-4-hydroxy-phenyl}-acetic acid]
300 to 1000 | > 1000 | O=C(O)CCn1c2c(c3ccccc31)C[C@H](NS(=O)(=O)c1ccc(F)cc1)CC2 [Ramatroban, reference compound]

Compound | IC50 [1] [nM] | IC50 [2] [nM]
COc1ccc(CC(=O)O[C@@H]2O[C@@H](C(=O)O)[C@H](O)[C@@H](O)[C@@H]2O)cc1Oc1ccc(NC(=O)C(C)(C)C)cc1CSC(C)(C)C [Compound 77, (2R,3R,4R,5S,6S)-6-(2-{3-[2-tert-Butylsulfanylmethyl-4-(2,2-dimethyl-propionylamino)-phenoxy]-4-methoxy-phenyl}-acetoxy)-3,4,5-trihydroxy-tetrahydro-pyran-2-carboxylic acid] | < 300 | < 300
